Assay [1] has as its target T1, Kit D816V (HMC1.2 cells, Kit V560G and D816V) (Homo sapiens, UniProt P10721, D816V/V560G).
T1 construct: endogenous in cells; host or cells: HMC1.2 cells
The experiment in a line: HMC1.2 autophosphorylation assay (AlphaLISA, phospho-Y719 c-Kit). Conditions: Kit autophosphorylation at tyrosine 719, 90 minutes, read-out: Cellular Activity. The format is cell-based. The method, boiled down:
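Serum-starved (overnight, serum-free IMDM) HMC1.2 cells were treated for 90 min with a 10-point compound series (25 uM–95.4 pM, 0.25% DMSO final). Lysates were probed with phospho-Y719 and total c-Kit antibodies (15 nM final) plus AlphaLISA acceptor and streptavidin donor beads (2 h each, RT), with AlphaScreen read-out.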
In general terms: Alpha assays give light when donor and acceptor beads are brought close together.

A further assay has as its target T2, wild type Kit (Homo sapiens, UniProt P10721).
T2 construct: purchased Carna Bioscience 08-156
In words: Kit wild type assay at Km (Caliper electrophoretic mobility shift). Conditions: 400 uM ATP, 25 C, 90 minutes; read-out: WT KIT. It counts as biochemical. The method, then: In order to assess the activity of chemical compounds against the relevant kinase of interest, the Caliper LifeSciences electrophoretic mobility shift technology platform is used. Fluorescently labeled substrate peptide is incubated in the presence of kinase and ATP so that a […] proportion of the peptide is phosphorylated. At the end of the reaction, the mix of phosphorylated (product) and non-phosphorylated (substrate) peptides are passed through the microfluidic system of the Caliper EZ Reader 2, under an applied potential difference. The presence of the phosphate group on the product peptide provides a difference in mass and charge between those of the substrate peptide, resulting in a separation of the substrate and product pools in the sample. As the pools pass a LEDS within the instrument, these pools are detected and resolved as separate peaks. The ratio between these peaks therefore reflects the activity of the chemical matter at that concentration in that well, under those conditions.
The reaction was stopped by the addition of 70 ul of Stop buffer (100 mM HEPES pH 7.5, 0.015% Brij 35, 35 mM EDTA and 0.2% of Coating Reagent 3 (Caliper Lifesciences)). The plate was then read on a Caliper EZReader 2 (protocol settings: −1.9 psi, upstream voltage −700, downstream voltage −3000, post sample sip 35 s).

The next assay has as its target T3, D816V Kit (Homo sapiens, UniProt P10721, D816V).
T3 construct: purchased Carna Bioscience 08-156
In words: Kit D816V assay at Km (Caliper electrophoretic mobility shift). It counts as biochemical. Conditions: 15 uM ATP, 25 C, 90 minutes. An outline of the steps: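 Read-out is the ratio of phosphorylated to unphosphorylated fluorescent peptide, resolved by mobility shift on a Caliper EZ Reader 2.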

T3 sequence (P10721 26-976 D816V): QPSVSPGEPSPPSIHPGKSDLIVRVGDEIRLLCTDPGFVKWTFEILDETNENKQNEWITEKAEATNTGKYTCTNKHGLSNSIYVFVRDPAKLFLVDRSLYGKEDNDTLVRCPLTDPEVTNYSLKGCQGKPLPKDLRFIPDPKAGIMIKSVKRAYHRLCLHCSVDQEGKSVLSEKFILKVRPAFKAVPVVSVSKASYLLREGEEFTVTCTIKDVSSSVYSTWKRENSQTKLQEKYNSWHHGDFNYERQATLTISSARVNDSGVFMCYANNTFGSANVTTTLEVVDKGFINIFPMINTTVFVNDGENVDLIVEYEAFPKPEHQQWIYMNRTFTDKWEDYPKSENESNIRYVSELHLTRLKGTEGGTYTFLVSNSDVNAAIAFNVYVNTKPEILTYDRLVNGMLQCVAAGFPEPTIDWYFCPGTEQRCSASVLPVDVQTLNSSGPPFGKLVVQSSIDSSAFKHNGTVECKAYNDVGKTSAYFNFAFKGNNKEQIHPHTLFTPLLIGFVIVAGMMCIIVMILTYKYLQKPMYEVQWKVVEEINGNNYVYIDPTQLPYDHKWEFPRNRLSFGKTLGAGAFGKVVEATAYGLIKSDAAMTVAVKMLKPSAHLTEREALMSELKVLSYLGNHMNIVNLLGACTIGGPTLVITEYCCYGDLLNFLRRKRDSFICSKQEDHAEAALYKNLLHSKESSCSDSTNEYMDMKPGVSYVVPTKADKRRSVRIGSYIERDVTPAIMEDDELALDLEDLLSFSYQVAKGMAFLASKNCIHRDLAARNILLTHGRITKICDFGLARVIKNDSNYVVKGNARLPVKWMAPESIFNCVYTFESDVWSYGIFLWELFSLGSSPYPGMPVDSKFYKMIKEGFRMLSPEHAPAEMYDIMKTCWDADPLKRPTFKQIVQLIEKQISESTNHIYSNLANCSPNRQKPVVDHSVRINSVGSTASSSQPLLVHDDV
T1 sequence (P10721 26-976 V560G/D816V): as the sequence (P10721 26-976 D816V) above, with V535G counted along it
T2 sequence (P10721 26-976): as the sequence (P10721 26-976 D816V) above, with V791D counted along it

As to `NS(=O)(=O)c1cccc(Nc2ncnc(N3CCN(c4ncc(Cc5ccccc5)cn4)CC3)n2)c1` [Compound 95], the IC50 in assay [1] was 1000 to 10000 nM; on wild type Kit it was 11 to 100 nM; on D816V Kit it was less than 1 nM.

Consider `c1ccc(Cc2cnc(N3CCN(c4ncnc(Nc5ccc(O[C@H]6CCCNC6)cc5)n4)CC3)nc2)cc1` [Compound 162], for which the IC50 in assay [1] was less than 10 nM; at wild type Kit it was less than 10 nM; on D816V Kit, less than 1 nM.

Regarding `c1ccc(Cc2cnc(N3CCN(c4ncnc(Nc5cnn(CC6CCOC6)c5)n4)CC3)nc2)cc1` (stereo not drawn) [Compound 86], the IC50 was 10 to 100 nM in assay [1], 11 to 100 nM at wild type Kit and less than 1 nM at D816V Kit.

Consider `CC(C)(O)c1cccc(Nc2ncnc(N3CCN(c4ncc(Cc5ccccc5)cn4)CC3)n2)c1` [Compound 50], for which the IC50 was 1000 to 10000 nM in assay [1], 11 to 100 nM on wild type Kit and 1.01 to 10 nM at D816V Kit.

Turning to `OCCN1CCc2ccc(Nc3ncnc(N4CCN(c5ncc(Cc6ccccc6)cn5)CC4)n3)cc2C1` [Compound 163], the results for the IC50 (in assay [1]; at wild type Kit; at D816V Kit) were 10 to 100 nM, less than 10 nM and less than 1 nM, respectively.

Take `Nc1cncc(Nc2ncnc(N3CCN(c4ncc(Cc5ccccc5)cn4)CC3)n2)c1` [Compound 13]: the IC50 in assay [1] was 10 to 100 nM; at wild type Kit it was less than 10 nM; on D816V Kit, less than 1 nM.

In the case of `c1ccc(Cc2cnc(N3CCN(c4ncnc(Nc5cnn(C[C@@H]6CCCN6)c5)n4)CC3)nc2)cc1` [Compound 85], the IC50 was 10 to 100 nM in assay [1], 11 to 100 nM at wild type Kit and less than 1 nM at D816V Kit.

On to `CS(=O)(=O)c1ccc(Nc2ncnc(N3CCN(c4ncc(Cc5ccccc5)cn4)CC3)n2)cc1` [Compound 94], for which the IC50 in assay [1] lay in the range of 10 to 100 nM; at wild type Kit, 11 to 100 nM; at D816V Kit, 1.01 to 10 nM.

Consider `CC(=O)c1cccc(Nc2ncnc(N3CCN(c4ncc(Cc5ccccc5)cn4)CC3)n2)c1` [Compound 22], for which the IC50 in assay [1] lay in the range of 100 to 1000 nM; at wild type Kit, 100 to 1000 nM; on D816V Kit, 1.01 to 10 nM.

Turning to `c1ccc(Cc2cnc(N3CCN(c4ncnc(Nc5cc[nH]n5)n4)CC3)nc2)cc1` [Compound 5], the values for the IC50 (in assay [1]; at wild type Kit; on D816V Kit) were 1000 to 10000 nM, 100 to 1000 nM and 1.01 to 10 nM, respectively.

Consider `CC(O)c1cccc(Nc2ncnc(N3CCN(c4ncc(Cc5ccccc5)cn4)CC3)n2)c1` (stereo not drawn) [Compound 26], for which the IC50 in assay [1] fell in the range of 100 to 1000 nM; at wild type Kit, 11 to 100 nM; on D816V Kit it was 1.01 to 10 nM.

As to `c1ccc(Cc2cnc(N3CCN(c4ncnc(Nc5cccc(O[C@@H]6CCNC6)c5)n4)CC3)nc2)cc1` [Compound 105], the figures for the IC50 (in assay [1]; on wild type Kit; on D816V Kit) were 100 to 1000 nM, 11 to 100 nM and less than 1 nM, respectively.

For the compound `CN1CCN(c2ccc(Nc3ncnc(N4CCN(c5ncc(Cc6ccccc6)cn5)CC4)n3)cc2F)CC1` [Compound 237], the IC50 in assay [1] was 10 to 100 nM; at wild type Kit, 11 to 100 nM; on D816V Kit it was less than 1 nM.

Take `OCC(O)Cn1cc(Nc2ncnc(N3CCN(c4ncc(Cc5ccccc5)cn4)CC3)n2)cn1` (stereo not drawn) [Compound 64, 3-(4-(4-(4-(5-benzylpyrimidin-2-yl)piperazin-1-yl)-1,3,5-triazin-2-ylamino)-1H-pyrazol-1-yl)propane-1,2-diol]: the IC50 in assay [1] was 10 to 100 nM; on wild type Kit it was 11 to 100 nM; at D816V Kit, less than 1 nM.

Regarding `COCCn1cc(Nc2ncnc(N3CCN(c4ncc(Cc5ccccc5)cn4)CC3)n2)cn1` [Compound 31], the IC50 in assay [1] was 10 to 100 nM; on wild type Kit, less than 10 nM; on D816V Kit, less than 1 nM.

As to `CN1CCN(c2ccc(Nc3ncnc(N4CCN(c5ncc(Cc6ccccc6)cn5)CC4)n3)cc2)CC1` [Compound 156], the IC50 in assay [1] was 10 to 100 nM; at wild type Kit, less than 10 nM; on D816V Kit, less than 1 nM.

As for `CN1CCO[C@@H](Cn2cc(Nc3ncnc(N4CCN(c5ncc(Cc6ccccc6)cn5)CC4)n3)cn2)C1` [Compound 180], the IC50 was 10 to 100 nM in assay [1], 11 to 100 nM on wild type Kit and less than 1 nM on D816V Kit.

Source of the values: patent US9334263B2, “Compositions useful for treating disorders related to kit” (BLUEPRINT MEDICINES CORPORATION, priority 2013, dated 2016).
